Assay: xn = mol fraction of the nth substance listed
Settings: 100 kPa, Liquid; for viscosity: Concentric cylinders viscometry; for mass density: Vibrating tube method

CCCCCCCO [heptan-1-ol] + CCCCOC(C)=O
Settings | mass density [kg/m3] | viscosity [mPa·s]
293.15 K, x2 = 0 | 822.2 | 7.03
293.15 K, x2 = 0.0819 | 826.3 | 6.17
293.15 K, x2 = 0.1604 | 830.3 | 5.46
293.15 K, x2 = 0.2399 | 834.5 | 4.81
293.15 K, x2 = 0.3497 | 840.6 | 4.03
293.15 K, x2 = 0.4399 | 845.7 | 3.47
293.15 K, x2 = 0.5743 | 853.6 | 2.72
293.15 K, x2 = 0.6496 | 858.2 | 2.34
293.15 K, x2 = 0.7391 | 863.8 | 1.92
293.15 K, x2 = 0.8491 | 870.9 | 1.41
293.15 K, x2 = 0.9385 | 876.8 | 1.01
298.15 K, x2 = 0 | 818.7 | 5.92
298.15 K, x2 = 0.0819 | 822.6 | 5.17
298.15 K, x2 = 0.1604 | 826.4 | 4.56
298.15 K, x2 = 0.2399 | 830.5 | 3.99
298.15 K, x2 = 0.3497 | 836.3 | 3.33
298.15 K, x2 = 0.4399 | 841.3 | 2.86
298.15 K, x2 = 0.5743 | 849 | 2.25
298.15 K, x2 = 0.6496 | 853.5 | 1.95
298.15 K, x2 = 0.7391 | 859 | 1.61
298.15 K, x2 = 0.8491 | 865.9 | 1.22
298.15 K, x2 = 0.9385 | 871.8 | 0.9
303.15 K, x2 = 0 | 815.2 | 5.03
303.15 K, x2 = 0.0819 | 818.8 | 4.37
303.15 K, x2 = 0.1604 | 822.5 | 3.84
303.15 K, x2 = 0.2399 | 826.3 | 3.35
303.15 K, x2 = 0.3497 | 831.9 | 2.78
303.15 K, x2 = 0.4399 | 836.7 | 2.4
303.15 K, x2 = 0.5743 | 844.2 | 1.89
303.15 K, x2 = 0.6496 | 848.6 | 1.65
303.15 K, x2 = 0.7391 | 853.9 | 1.38
303.15 K, x2 = 0.8491 | 860.8 | 1.06
303.15 K, x2 = 0.9385 | 866.6 | 0.81
308.15 K, x2 = 0 | 811.6 | 4.3
308.15 K, x2 = 0.0819 | 815 | 3.73
308.15 K, x2 = 0.1604 | 818.4 | 3.26
308.15 K, x2 = 0.2399 | 822.1 | 2.84
308.15 K, x2 = 0.3497 | 827.4 | 2.36
308.15 K, x2 = 0.4399 | 832.1 | 2.03
308.15 K, x2 = 0.5743 | 839.3 | 1.61
308.15 K, x2 = 0.6496 | 843.6 | 1.41
308.15 K, x2 = 0.7391 | 848.9 | 1.19
308.15 K, x2 = 0.8491 | 855.7 | 0.94
308.15 K, x2 = 0.9385 | 861.4 | 0.73
313.15 K, x2 = 0 | 808 | 3.71
313.15 K, x2 = 0.0819 | 811 | 3.19
313.15 K, x2 = 0.1604 | 814.2 | 2.78
313.15 K, x2 = 0.2399 | 817.6 | 2.42
313.15 K, x2 = 0.3497 | 822.7 | 2.01
313.15 K, x2 = 0.4399 | 827.1 | 1.74
313.15 K, x2 = 0.5743 | 834.1 | 1.4
313.15 K, x2 = 0.6496 | 838.3 | 1.23
313.15 K, x2 = 0.7391 | 843.5 | 1.06
313.15 K, x2 = 0.8491 | 850.3 | 0.85
313.15 K, x2 = 0.9385 | 856 | 0.67
318.15 K, x2 = 0 | 804.4 | 3.21
318.15 K, x2 = 0.0819 | 807.2 | 2.75
318.15 K, x2 = 0.1604 | 810.1 | 2.4
318.15 K, x2 = 0.2399 | 813.3 | 2.08
318.15 K, x2 = 0.3497 | 818.1 | 1.73
318.15 K, x2 = 0.4399 | 822.3 | 1.49
318.15 K, x2 = 0.5743 | 829.2 | 1.22
318.15 K, x2 = 0.6496 | 833.3 | 1.09
318.15 K, x2 = 0.7391 | 838.4 | 0.94
318.15 K, x2 = 0.8491 | 845.1 | 0.77
318.15 K, x2 = 0.9385 | 850.9 | 0.62
323.15 K, x2 = 0 | 800.7 | 2.79
323.15 K, x2 = 0.0819 | 803.2 | 2.4
323.15 K, x2 = 0.1604 | 806 | 2.09
323.15 K, x2 = 0.2399 | 808.9 | 1.81
323.15 K, x2 = 0.3497 | 813.5 | 1.5
323.15 K, x2 = 0.4399 | 817.6 | 1.3
323.15 K, x2 = 0.5743 | 824.2 | 1.06
323.15 K, x2 = 0.6496 | 828.2 | 0.95
323.15 K, x2 = 0.7391 | 833.2 | 0.83
323.15 K, x2 = 0.8491 | 839.9 | 0.7
323.15 K, x2 = 0.9385 | 845.7 | 0.58

CCCCCCCCCO [nonan-1-ol] + CCCCOC(C)=O
Settings | mass density [kg/m3] | viscosity [mPa·s]
293.15 K, x2 = 0 | 827.5 | 11.41
293.15 K, x2 = 0.0812 | 830.4 | 10.09
293.15 K, x2 = 0.1601 | 833.4 | 8.95
293.15 K, x2 = 0.2399 | 836.7 | 7.89
293.15 K, x2 = 0.3499 | 841.6 | 6.6
293.15 K, x2 = 0.4399 | 845.9 | 5.65
293.15 K, x2 = 0.5599 | 852.2 | 4.46
293.15 K, x2 = 0.6501 | 857.3 | 3.65
293.15 K, x2 = 0.7399 | 862.7 | 2.89
293.15 K, x2 = 0.8499 | 870 | 1.97
293.15 K, x2 = 0.9452 | 876.8 | 1.18
298.15 K, x2 = 0 | 824 | 9.43
298.15 K, x2 = 0.0812 | 826.7 | 8.31
298.15 K, x2 = 0.1601 | 829.6 | 7.35
298.15 K, x2 = 0.2399 | 832.8 | 6.49
298.15 K, x2 = 0.3499 | 837.4 | 5.4
298.15 K, x2 = 0.4399 | 841.6 | 4.62
298.15 K, x2 = 0.5599 | 847.7 | 3.64
298.15 K, x2 = 0.6501 | 852.7 | 2.99
298.15 K, x2 = 0.7399 | 858 | 2.37
298.15 K, x2 = 0.8499 | 865.1 | 1.65
298.15 K, x2 = 0.9452 | 871.8 | 1.03
303.15 K, x2 = 0 | 820.5 | 7.86
303.15 K, x2 = 0.0812 | 822.9 | 6.89
303.15 K, x2 = 0.1601 | 825.7 | 6.07
303.15 K, x2 = 0.2399 | 828.7 | 5.33
303.15 K, x2 = 0.3499 | 833.1 | 4.43
303.15 K, x2 = 0.4399 | 837.2 | 3.79
303.15 K, x2 = 0.5599 | 843.1 | 3
303.15 K, x2 = 0.6501 | 847.9 | 2.46
303.15 K, x2 = 0.7399 | 853 | 1.97
303.15 K, x2 = 0.8499 | 860 | 1.4
303.15 K, x2 = 0.9452 | 866.5 | 0.91
308.15 K, x2 = 0 | 817.1 | 6.61
308.15 K, x2 = 0.0812 | 819.4 | 5.78
308.15 K, x2 = 0.1601 | 821.9 | 5.08
308.15 K, x2 = 0.2399 | 824.7 | 4.44
308.15 K, x2 = 0.3499 | 828.9 | 3.68
308.15 K, x2 = 0.4399 | 832.8 | 3.14
308.15 K, x2 = 0.5599 | 838.4 | 2.49
308.15 K, x2 = 0.6501 | 843.1 | 2.07
308.15 K, x2 = 0.7399 | 848.1 | 1.67
308.15 K, x2 = 0.8499 | 854.9 | 1.21
308.15 K, x2 = 0.9452 | 861.4 | 0.81
313.15 K, x2 = 0 | 813.6 | 5.59
313.15 K, x2 = 0.0812 | 815.5 | 4.87
313.15 K, x2 = 0.1601 | 817.7 | 4.26
313.15 K, x2 = 0.2399 | 820.2 | 3.72
313.15 K, x2 = 0.3499 | 824.2 | 3.08
313.15 K, x2 = 0.4399 | 827.8 | 2.63
313.15 K, x2 = 0.5599 | 833.2 | 2.11
313.15 K, x2 = 0.6501 | 837.8 | 1.77
313.15 K, x2 = 0.7399 | 842.8 | 1.45
313.15 K, x2 = 0.8499 | 849.5 | 1.07
313.15 K, x2 = 0.9452 | 856 | 0.74
318.15 K, x2 = 0 | 810.1 | 4.78
318.15 K, x2 = 0.0812 | 811.8 | 4.15
318.15 K, x2 = 0.1601 | 813.8 | 3.62
318.15 K, x2 = 0.2399 | 816.1 | 3.16
318.15 K, x2 = 0.3499 | 819.7 | 2.61
318.15 K, x2 = 0.4399 | 823 | 2.24
318.15 K, x2 = 0.5599 | 828.3 | 1.8
318.15 K, x2 = 0.6501 | 832.7 | 1.5
318.15 K, x2 = 0.7399 | 837.5 | 1.24
318.15 K, x2 = 0.8499 | 844.3 | 0.93
318.15 K, x2 = 0.9452 | 850.8 | 0.67
323.15 K, x2 = 0 | 806.5 | 4.1
323.15 K, x2 = 0.0812 | 807.9 | 3.56
323.15 K, x2 = 0.1601 | 809.7 | 3.11
323.15 K, x2 = 0.2399 | 811.8 | 2.71
323.15 K, x2 = 0.3499 | 815.2 | 2.24
323.15 K, x2 = 0.4399 | 818.4 | 1.91
323.15 K, x2 = 0.5599 | 823.5 | 1.54
323.15 K, x2 = 0.6501 | 827.8 | 1.29
323.15 K, x2 = 0.7399 | 832.6 | 1.08
323.15 K, x2 = 0.8499 | 839.1 | 0.83
323.15 K, x2 = 0.9452 | 845.6 | 0.61

Reference: the NIST ThermoML archive (doi:10.1021/acs.jced.8b00524)
